Measured values published in patent publication US10953012B2, “Heterocyclic compounds for the inhibition of pask” (BioEnergenix LLC, priority 2011, dated 2021).

Columns and labels:
hPASK (full length) = hPASK (full length) (Homo sapiens (Human), UniProt Q96RG2); experiment: PAS Kinase Luminescence Assay (Kinase-Glo), full length; assay type: biochemical
Description: (§1) PAS Kinase Luminescence Assay
(§2) One assay for purified hPASK activity utilizes the Kinase-Glo Luminescent Kinase Assay (Promega), which quantifies the amount of ATP remaining in solution following kinase reaction. The assay is carried out in a 96-well plate format and is performed by adding a volume of Kinase-Glo Reagent (Promega, catalog #V3771) equal to the volume of solution in the well of a completed kinase reaction. Kinase-Glo reagent contains Luciferase and its substrate. After addition to a kinase reaction it allows to measure luminescence. The amount of ATP left in solution at the time of Kinase-Glo Plus addition is directly proportional to the luminescence that is measured in each well, and inversely correlated with kinase activity.
(§3) Purified hPASK from insect cells (0.02 μg) is added to a 50 μL reaction mix containing 40 mM HEPES (pH 7.0), 100 mM KCl, 5 mM MgCl2, 1 mM DTT and 1 μg of MBP protein. Inhibitory compounds are then added and the mixture is incubated for 10 min at 25° C. before adding 5 μL of ATP (at desired concentration). The reaction is allowed to proceed at 25° C. for 1 hour before adding 50 μL of Kinase-Glo reagent. The luminescence is measured as soon as 10 minutes after Kinase-Glo reagent is added.
(§4) Results are shown below in Table 1, where NT means not tested.

hPASK (kinase domain) = hPASK (kinase domain) (Homo sapiens (Human), UniProt Q96RG2); experiment: PAS Kinase Luminescence Assay (Kinase-Glo), kinase domain; assay type: biochemical
Sequence of hPASK (kinase domain) (Q96RG2 999-1251): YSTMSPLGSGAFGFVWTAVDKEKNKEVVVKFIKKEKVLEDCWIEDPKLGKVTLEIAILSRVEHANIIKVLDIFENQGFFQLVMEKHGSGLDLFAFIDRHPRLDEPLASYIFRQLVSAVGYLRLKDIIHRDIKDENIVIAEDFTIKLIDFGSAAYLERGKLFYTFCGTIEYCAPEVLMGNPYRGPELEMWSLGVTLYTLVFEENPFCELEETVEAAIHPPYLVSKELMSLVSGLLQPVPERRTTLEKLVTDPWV
Description: as §1, §2, §3, §4

Sequence of hPASK (full length) (Q96RG2 whole entry): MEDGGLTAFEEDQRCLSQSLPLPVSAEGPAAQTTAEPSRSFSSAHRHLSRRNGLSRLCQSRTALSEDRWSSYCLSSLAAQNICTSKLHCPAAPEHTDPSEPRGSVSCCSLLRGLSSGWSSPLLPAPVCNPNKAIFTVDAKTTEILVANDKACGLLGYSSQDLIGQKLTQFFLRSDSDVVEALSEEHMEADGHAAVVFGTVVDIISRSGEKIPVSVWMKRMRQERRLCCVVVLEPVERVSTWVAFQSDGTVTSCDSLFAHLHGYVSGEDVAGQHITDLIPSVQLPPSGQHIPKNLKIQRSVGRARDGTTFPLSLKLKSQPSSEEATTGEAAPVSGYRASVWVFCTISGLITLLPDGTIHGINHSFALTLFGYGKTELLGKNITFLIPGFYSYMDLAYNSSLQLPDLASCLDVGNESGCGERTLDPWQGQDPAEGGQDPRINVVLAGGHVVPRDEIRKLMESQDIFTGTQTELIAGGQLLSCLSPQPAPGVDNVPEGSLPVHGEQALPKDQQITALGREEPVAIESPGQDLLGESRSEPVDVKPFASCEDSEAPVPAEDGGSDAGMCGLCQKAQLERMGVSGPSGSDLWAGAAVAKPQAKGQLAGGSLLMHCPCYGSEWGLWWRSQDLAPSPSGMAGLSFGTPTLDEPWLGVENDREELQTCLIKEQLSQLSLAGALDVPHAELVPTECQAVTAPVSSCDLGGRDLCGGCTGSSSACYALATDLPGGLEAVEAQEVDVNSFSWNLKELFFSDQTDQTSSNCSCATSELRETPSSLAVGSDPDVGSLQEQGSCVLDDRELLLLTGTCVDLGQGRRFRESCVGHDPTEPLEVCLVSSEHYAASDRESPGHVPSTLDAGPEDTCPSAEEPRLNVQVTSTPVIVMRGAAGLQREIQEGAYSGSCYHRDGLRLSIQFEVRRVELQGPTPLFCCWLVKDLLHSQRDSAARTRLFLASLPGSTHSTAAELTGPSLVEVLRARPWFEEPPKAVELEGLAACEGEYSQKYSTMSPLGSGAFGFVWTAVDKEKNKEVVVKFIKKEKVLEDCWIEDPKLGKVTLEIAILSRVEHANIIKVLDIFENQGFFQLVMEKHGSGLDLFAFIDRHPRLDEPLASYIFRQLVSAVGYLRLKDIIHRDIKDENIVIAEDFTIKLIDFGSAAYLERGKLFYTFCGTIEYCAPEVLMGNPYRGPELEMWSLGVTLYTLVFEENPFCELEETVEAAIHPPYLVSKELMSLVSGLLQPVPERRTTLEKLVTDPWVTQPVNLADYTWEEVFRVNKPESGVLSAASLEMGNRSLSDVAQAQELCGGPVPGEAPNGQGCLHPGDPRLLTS

SMILES: O=c1c2c([nH]c3c(-c4ccc(Cl)cc4)c(Cc4ccccc4)nn13)CCC2 [Example 26, 2-Benzyl-3-(4-chlorophenyl)-6,7-dihydro-4H-cyclopenta[d]pyrazolo[1,5-a]pyrimidin-8(5H)-one]
- IC50 (hPASK (full length)): ≥ 10 µM
- IC50 (hPASK (kinase domain)): ≥ 10 µM

SMILES: Cc1nn2c(=O)c3c([nH]c2c1-c1ccc(Cl)cc1)CCC3 [Example 27, 3-(4-Chlorophenyl)-2-methyl-6,7-dihydro-4H-cyclopenta[d]pyrazolo[1,5-a]pyrimidin-8(5H)-one]
- IC50 (hPASK (full length)): ≥ 10 µM
- IC50 (hPASK (kinase domain)): ≥ 10 µM

SMILES: Cc1cc(=O)n2nc(C)c(-c3ccc(Cl)cc3)c2[nH]1 [Example 28, 3-(4-Chloro-phenyl)-2,5-dimethyl-4H-pyrazolo[1,5-a]pyrimidin-7-one]
- IC50 (hPASK (full length)): ≥ 10 µM
- IC50 (hPASK (kinase domain)): ≥ 10 µM

SMILES: COCc1cc(=O)n2nc(-c3ccc(Cl)cc3)cc2[nH]1 [Example 29, 2-(4-Chloro-phenyl)-5-methoxymethyl-4H-pyrazolo[1,5-a]pyrimidin-7-one]
- IC50 (hPASK (full length)): ≥ 10 µM
- IC50 (hPASK (kinase domain)): ≥ 10 µM

SMILES: COc1ccc(-c2nn3c(=O)cc(C(C)C)[nH]c3c2-c2ccccc2)cc1 [Example 30, 5-Isopropyl-2-(4-methoxy-phenyl)-3-phenyl-4H-pyrazolo[1,5-a]pyrimidin-7-one]
- IC50 (hPASK (full length)): ≥ 10 µM
- IC50 (hPASK (kinase domain)): ≥ 10 µM

SMILES: COc1ccc(Cc2nn3c(=O)cc(C)[nH]c3c2-c2ccccc2)cc1 [Example 31, 2-(4-Methoxy-benzyl)-5-methyl-3-phenyl-4H-pyrazolo[1,5-a]pyrimidin-7-one]
- IC50 (hPASK (full length)): ≥ 10 µM
- IC50 (hPASK (kinase domain)): ≥ 10 µM

SMILES: CCc1c(C)[nH]c2c(-c3ccccc3)c(Cc3ccc(OC)cc3)nn2c1=O [Example 32, 6-Ethyl-2-(4-methoxy-benzyl)-5-methyl-3-phenyl-4H-pyrazolo[1,5-a]pyrimidin-7-one]
- IC50 (hPASK (full length)): ≥ 10 µM
- IC50 (hPASK (kinase domain)): ≥ 10 µM

SMILES: CCc1c(C)[nH]c2c(-c3ccc(Cl)cc3)c(C)nn2c1=O [Example 33, 3-(4-Chloro-phenyl)-6-ethyl-2,5-dimethyl-4H-pyrazolo[1,5-a]pyrimidin-7-one]
- IC50 (hPASK (full length)): ≥ 10 µM
- IC50 (hPASK (kinase domain)): ≥ 10 µM

SMILES: O=c1cc(Cc2ccccc2)[nH]c2c(-c3ccccc3)c(-c3ccccc3)nn12 [Example 34, 5-Benzyl-2,3-diphenyl-4H-pyrazolo[1,5-a]pyrimidin-7-one]
- IC50 (hPASK (full length)): ≥ 10 µM
- IC50 (hPASK (kinase domain)): ≥ 10 µM

SMILES: O=c1c2c([nH]c3c(-c4ccccc4)c(-c4ccccc4)nn13)CCC2 [Example 35, 2,3-Diphenyl-6,7-dihydro-4H-cyclopenta[d]pyrazolo[1,5-a]pyrimidin-8(5H)-one]
- IC50 (hPASK (full length)): ≥ 10 µM
- IC50 (hPASK (kinase domain)): ≤ 10 µM

SMILES: CCOC(=O)Cc1cc(=O)n2nc(-c3ccccc3)c(-c3ccccc3)c2[nH]1 [Example 36, (7-oxo-2,3-diphenyl-4,7-dihydro-pyrazolo[1,5-a]pyrimidin-5-yl)-acetic acid ethyl ester]
- IC50 (hPASK (full length)): ≥ 10 µM
- IC50 (hPASK (kinase domain)): ≥ 10 µM

SMILES: Cc1ccc(-c2cc(=O)n3nc(C)c(-c4ccccc4)c3[nH]2)cc1 [Example 37, 2-Methyl-3-phenyl-5-p-tolyl-4H-pyrazolo[1,5-a]pyrimidin-7-one]
- IC50 (hPASK (full length)): ≥ 10 µM
- IC50 (hPASK (kinase domain)): ≥ 10 µM

SMILES: COc1ccc(-c2cc(=O)n3nc(C)c(-c4ccc(F)cc4)c3[nH]2)cc1 [Example 38, 3-(4-Fluoro-phenyl)-5-(4-methoxy-phenyl)-2-methyl-4H-pyrazolo[1,5-a]pyrimidin-7-one]
- IC50 (hPASK (full length)): ≤ 10 µM
- IC50 (hPASK (kinase domain)): ≤ 10 µM

SMILES: Cc1cc(=O)n2nc(-c3cccc(Br)c3)cc2[nH]1 [Example 39, 2-(3-Bromo-phenyl)-5-methyl-4H-pyrazolo[1,5-a]pyrimidin-7-one]
- IC50 (hPASK (full length)): ≤ 10 µM
- IC50 (hPASK (kinase domain)): ≥ 10 µM
